Test results reported in ChEMBL document CHEMBL1125888, “Inhibitors of cholesterol biosynthesis. 3. Tetrahydro-4-hydroxy-6-[2-(1H-pyrrol-1-yl)ethyl]-2H-pyran-2-one inhibitors of HMG-CoA reductase. 2. Effects of introducing substituents at positions three and four of the pyrrole nucleus” (J Med Chem, 1991).

What was measured:
[1] = target: T1, 3-hydroxy-3-methylglutaryl-coenzyme A reductase (Rattus norvegicus) (UniProt P51639); assay: Relative potency against HMG-CoA reductase activity in partially purified rat liver; type: functional
T1 sequence (whole entry): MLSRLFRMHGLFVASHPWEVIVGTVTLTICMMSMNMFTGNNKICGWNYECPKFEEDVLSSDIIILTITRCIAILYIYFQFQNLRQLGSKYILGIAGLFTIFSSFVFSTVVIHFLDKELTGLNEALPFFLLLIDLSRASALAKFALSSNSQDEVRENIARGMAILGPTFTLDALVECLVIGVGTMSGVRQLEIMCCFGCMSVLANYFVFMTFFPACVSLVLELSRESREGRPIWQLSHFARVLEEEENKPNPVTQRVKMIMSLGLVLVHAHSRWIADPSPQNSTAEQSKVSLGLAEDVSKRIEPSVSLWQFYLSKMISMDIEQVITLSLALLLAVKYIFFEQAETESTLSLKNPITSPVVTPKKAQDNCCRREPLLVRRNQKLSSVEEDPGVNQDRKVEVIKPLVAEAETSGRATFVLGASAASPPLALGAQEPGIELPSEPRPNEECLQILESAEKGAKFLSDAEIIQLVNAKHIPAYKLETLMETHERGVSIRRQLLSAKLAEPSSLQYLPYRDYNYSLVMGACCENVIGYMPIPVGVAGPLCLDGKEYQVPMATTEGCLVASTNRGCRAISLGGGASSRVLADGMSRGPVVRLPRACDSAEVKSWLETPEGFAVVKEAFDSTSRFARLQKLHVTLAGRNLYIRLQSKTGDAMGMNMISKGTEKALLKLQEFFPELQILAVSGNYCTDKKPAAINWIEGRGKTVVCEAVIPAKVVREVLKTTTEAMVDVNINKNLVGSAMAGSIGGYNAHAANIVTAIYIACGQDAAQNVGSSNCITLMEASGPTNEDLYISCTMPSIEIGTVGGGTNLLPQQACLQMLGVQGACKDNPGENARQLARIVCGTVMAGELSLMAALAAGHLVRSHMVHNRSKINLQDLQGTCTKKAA

[2] = target: T2, 3-hydroxy-3-methylglutaryl-coenzyme A reductase (Rattus norvegicus, UniProt P51639); assay: Inhibition of HMG-CoA reductase activity in partially purified rat liver
T2 sequence (P51639 whole entry): T1 sequence (whole entry)

Row | Compound | Relative potency [1] | IC50 [2]
1 | CC(C)c1c(C(=O)Nc2ccccc2)c(-c2ccccc2)c(-c2ccc(F)cc2)n1CC[C@@H]1C[C@@H](O)CC(=O)O1 (racemic) | 81.4 | 
2 | CCOC(=O)c1c(-c2ccccc2)c(-c2ccccc2)n(CC[C@@H]2C[C@@H](O)CC(=O)O2)c1C | 0.6 | 4000 nM
3 | CC(C)c1c(C(=O)Nc2ccccc2)c(-c2ccccc2)c(-c2ccc(F)cc2)n1CC[C@@H]1C[C@@H](O)CC(=O)O1 (stereo in doubt; (-)-33) | 13.9 | 
4 | CC(C)c1cc(-c2ccccc2)c(-c2ccc(F)cc2)n1CC[C@@H]1C[C@@H](O)CC(=O)O1 | 12.5 | 347 nM
5 | CC(C)c1c(-c2ccccc2)cc(-c2ccc(F)cc2)n1CC[C@@H]1C[C@@H](O)CC(=O)O1 | 36.3 | 120 nM
6 | CC(C)c1cc(C(=O)C(F)(F)F)c(-c2ccc(F)cc2)n1CC[C@@H]1C[C@@H](O)CC(=O)O1 | 8.8 | 800 nM
7 | CCOC(=O)c1c(-c2ccccc2)c(-c2ccccc2)n(CC[C@@H]2C[C@@H](O)CC(=O)O2)c1C(C)C | 23.5 | 170 nM
8 | CC(C)c1cc(-c2ccncc2)c(-c2ccc(F)cc2)n1CC[C@@H]1C[C@@H](O)CC(=O)O1 | 2.1 | 310 nM
9 | CC(C)c1cc(-c2cccnc2)c(-c2ccc(F)cc2)n1CC[C@@H]1C[C@@H](O)CC(=O)O1 | 9.4 | 71 nM
10 | CC(C)c1ccc(-c2ccc(F)cc2)n1CC[C@@H]1C[C@@H](O)CC(=O)O1 | 10.9 | 
11 | CC(C)c1c(C(=O)Nc2ccccc2)c(-c2ccccc2)c(-c2ccc(F)cc2)n1CC[C@@H]1C[C@@H](O)CC(=O)O1 (stereo in doubt; (-)-33) [ATORVASTATIN LACTONE] |  | 440 nM
12 | CCOC(=O)c1c(C(=O)OCC)c(C(C)C)n(CC[C@@H]2C[C@@H](O)CC(=O)O2)c1-c1ccc(F)cc1 | 2.8 | 350 nM
13 | CCOC(=O)c1c(-c2ccccc2)c(-c2ccc(F)cc2)n(CC[C@@H]2C[C@@H](O)CC(=O)O2)c1C(C)C | 35.5 | 200 nM
14 | Cc1c(C)c(C(C)C)n(CC[C@@H]2C[C@@H](O)CC(=O)O2)c1-c1ccc(F)cc1 | 16 | 140 nM
15 | CC(C)c1c(C(=O)Nc2ccccc2)c(-c2ccccc2)c(-c2ccc(F)cc2)n1CC[C@@H]1C[C@@H](O)CC(=O)O1 (stereo in doubt; (+)-33) | 500 | 
16 | CCOC(=O)c1c(-c2ccc(C#N)cc2)c(-c2ccc(F)cc2)n(CC[C@@H]2C[C@@H](O)CC(=O)O2)c1C(C)C | 16.2 | 280 nM
17 | COC(=O)c1c(C(=O)OC)c(C(C)C)n(CC[C@@H]2C[C@@H](O)CC(=O)O2)c1-c1ccc(F)cc1 | 14.3 | 180 nM
18 | CCOC(=O)c1c(-c2ccccc2)c(-c2ccccc2)n(CC[C@@H]2C[C@@H](O)CC(=O)O2)c1CC | 6.3 | 890 nM

More lines, in order of falling IC50 [2], values ahead:

Row | Relative potency [1] | IC50 [2] | Compound
19 | 100 | 50 nM | CCOC(=O)c1c(-c2ccccc2)c(C(C)C)n(CC[C@@H]2C[C@@H](O)CC(=O)O2)c1-c1ccc(F)cc1
20 | 76 | 46 nM | CC(C)c1cc(-c2ccccn2)c(-c2ccc(F)cc2)n1CC[C@@H]1C[C@@H](O)CC(=O)O1
21 | 24 | 40 nM | CC(C)c1c(C(=O)OCc2ccccc2)c(-c2ccccc2)c(-c2ccc(F)cc2)n1CC[C@@H]1C[C@@H](O)CC(=O)O1
22 | 100 | 30 nM | CC[C@H](C)C(=O)O[C@H]1CCC=C2C=C[C@H](C)[C@H](CC[C@@H]3C[C@@H](O)CC(=O)O3)[C@H]21 [MEVASTATIN]
23 | 78.6 | 28 nM | CC(C)c1c(Br)c(Br)c(-c2ccc(F)cc2)n1CC[C@@H]1C[C@@H](O)CC(=O)O1
24 | 78.6 | 28 nM | CC(C)c1c(Cl)c(Cl)c(-c2ccc(F)cc2)n1CC[C@@H]1C[C@@H](O)CC(=O)O1
25 |  | 25 nM | CC(C)c1c(C(=O)Nc2ccccc2)c(-c2ccccc2)c(-c2ccc(F)cc2)n1CC[C@@H]1C[C@@H](O)CC(=O)O1 (racemic) [ATORVASTATIN LACTONE]
26 |  | 7 nM | CC(C)c1c(C(=O)Nc2ccccc2)c(-c2ccccc2)c(-c2ccc(F)cc2)n1CC[C@@H]1C[C@@H](O)CC(=O)O1 (stereo in doubt; (+)-33) [ATORVASTATIN LACTONE]
